Data reported in patent US20190367868A1, “NEURONS AND COMPOSITIONS AND METHODS FOR PRODUCING THE SAME” (President and Fellows of Harvard College, priority 2015, published 2019).
Several values for one entry are separate records, joined by “and”; a condition that tells them apart may be missing. Equal values may be shown once.

How the values were obtained:
Type in all cases: cell-based, human
[1] = test system: cortical neurons from dissociated cortical spheres; experiment: qRT-PCR of activity-induced genes after KCl stimulation of cortical neurons; settings: KCl-stimulated cortical neurons, by one hour after stimulation
From the text: (§1) It is well known that synaptic activation through depolarization induces a transcriptional response in neurons (Ebert and Greenberg, 2013; Flavell et al., 2008; Hong et al., 2008; Lin et al., 2008). A key event in many types of neurons, including cortical neurons, is the phosphorylation of the transcription factor CREB. To examine whether neurons from dissociated cortical spheres responded to activation, we depolarized them with KCl.
Total RNA was isolated using RNeasy mini kit (QIAGEN) and subsequent cDNA synthesis with iSCRIPT (Bio-Rad). qRT-PCR was then performed using SYBER green (Bio-Rad) on a QuantStudio™ 12 K Flex Real-Time PCR System (Life Technologies). Quantitative levels for all genes were normalized to endogenous GAPDH. Expression levels of individual genes were normalized to the levels in undifferentiated human ESC/iPSC of each line. For KCL experiments, expression levels were normalized to the levels in untreated cells.
KCl experiments were performed on spheres at day 20 of differentiation and on dissociated neurons 10 days after dissociation. Neurons were silenced overnight with TTX (Natchannel-blocker) (EMD Bioscience, 1 μM) and AP-V (NMDAR antagonist) (Sigma Aldrich, 100 μM), two compounds that together inhibit any spontaneous activity in cultured neurons. […] Phospho-CREB was detected by immunostaining as described.

[2] = test system: dissociated neurons from motor neuron spheres; experiment: phospho-CREB immunocytochemistry after KCl depolarization of motor neurons
Procedure: When stimulated with sonic hedgehog and retinoic acid at the proper doses and time points, differentiating cells within the spheres adopt the motor neuron fate and can be dissociated and replated without glial feeder layers.
Cell cultures were fixed in 4% paraformaldehyde (PFA) in PBS at room temperature (RT) for 20 min, then blocked for 20 min in 5% horse serum (HS) (Gibco) and 0.1% Triton X-100 (Sigma) in PBS. Cells were incubated with primary antibodies overnight at 4° C. Secondary antibodies were applied for 1 hr at room temperature. Whole spheres were cleared using the SeeDB protocol as follows: samples were fixed in 4% PFA and blocked for 24-48 hrs in 0.1% Triton X-100 and 5% HS at 4° C. Samples were then incubated with primary antibodies for 2-3 days at 4° C. in either blocking solution or 10% HS. Samples were washed with PBS 3 times and incubated with secondary antibodies for 3 days in either blocking solution or 10% HS. Following washing with PBS, samples were serially incubated in 20%, 40%, 60%, and 80% (wt/vol) fructose for 6-12 hrs at 25° C. Samples were immersed in 100% (wt/vol) fructose for 24 hrs, followed by SeeDB (115%, wt/vol) for at least 24 hrs at 25° C. […]
KCl experiments were performed on spheres at day 20 of differentiation and on dissociated neurons 10 days after dissociation. […] Phospho-CREB was detected by immunostaining as described.

[3] = test system: HUES8-derived cortical neurons; experiment: phospho-CREB immunocytochemistry after KCl depolarization of dissociated cortical neurons
From the text: as §1
Cell cultures were fixed in 4% paraformaldehyde (PFA) in PBS at room temperature (RT) for 20 min, then blocked for 20 min in 5% horse serum (HS) (Gibco) and 0.1% Triton X-100 (Sigma) in PBS. Cells were incubated with primary antibodies overnight at 4° C. Secondary antibodies were applied for 1 hr at room temperature. Whole spheres were cleared using the SeeDB protocol as follows: samples were fixed in 4% PFA and blocked for 24-48 hrs in 0.1% Triton X-100 and 5% HS at 4° C. Samples were then incubated with primary antibodies for 2-3 days at 4° C. in either blocking solution or 10% HS. Samples were washed with PBS 3 times and incubated with secondary antibodies for 3 days in either blocking solution or 10% HS. Following washing with PBS, samples were serially incubated in 20%, 40%, 60%, and 80% (wt/vol) fructose for 6-12 hrs at 25° C. Samples were immersed in 100% (wt/vol) fructose for 24 hrs, followed by SeeDB (115%, wt/vol) for at least 24 hrs at 25° C. All solutions were prepared with H2O and contained 0.5% α-thioglycerol. Samples were stored in SeeDB at 4° C.
The primary antibodies used in this study were raised against PAX6 (Covance), OTX1-2, Ki67, TBR1, SATB2, CTIP2, and ISL1 (Abcam), GLUR1, and ChAT (Millipore), SYNAPSINI (Synaptic System), TUJ1 (Covance), and MAP2 (Lifespan Biosciences). Secondary antibodies were AlexaFluor488, -546, -555, and -647-conjugated antibodies raised against the appropriate species (Invitrogen). Immunocytochemical images were acquired on the Opera High-Content Screening System (PerkinElmer). Immunohistochemical images and Ca^2+ imaging was acquired on the Nikon Eclipse TE2000-S microscope equipped with a heated stage and a humidified chamber with atmospheric control. 3D LSFM was performed on the ZEISS Lightsheet.Z1 Microscope Quantitative image analysis of neuronal cultures was done using PerkinElmer Columbus Image Data Storage and Analysis System v2.3.3.
[…] Neurons were silenced overnight with TTX (Natchannel-blocker) (EMD Bioscience, 1 μM) and AP-V (NMDAR antagonist) (Sigma Aldrich, 100 μM), two compounds that together inhibit any spontaneous activity in cultured neurons. […] Phospho-CREB was detected by immunostaining as described.

[4] = test system: HUES9-derived motor neurons; experiment: GCaMP6 Ca2+ imaging after GABA and AMPA application; settings: 100 μM, motor neurons cultured for 3 weeks after sphere dissociation
Procedure: Patch-clamp recordings were performed to further understand the electrophysiological characteristics of motor neurons from dissociated spheres.
For Ca^2+ imaging during the GABA switchover experiment cells were transduced with AAV1.Syn.GCaMP6s.WPRE.SV40 4 days after plating. During recording, coverslips were transferred to a perfusion chamber mounted on a Nikon Eclipse TE2000 microscope. Time-lapse recordings were performed at RT at a rate of 1 frame per second. GABA and AMPA were prepared and applied for 10 seconds in the same bath solution as used for electrophysiology. Mean fluorescent intensity of GCaMP6 fluorescence was measured in soma by ImageJ (U.S. National Institutes of Health, available at the world wide web at subdomain //imagej.nih.gov/ij/) and plotted by Igor. The amplitude was normalized to baseline fluorescent level (mean of 5 frames before drug application) for each cell. Background fluorescent level was determined in a cell-free area for each recording and subtracted.

Structure (SMILES)	transcription of the early-induced genes NPAS4, cFOS, and ARC [1]	phosphorylation of CREB in motor neurons after KCl depolarization [2]	relative proportion of neurons positive for phospho-CREB, 30 min KCl ([3]; HUES8-derived cortical neurons 20 days after dissociation, KCl (60 mM) for 30 min, replicates and average of three independent experiments)	relative proportion of neurons positive for phospho-CREB, 1 hr KCl ([3]; HUES8-derived cortical neurons 20 days after dissociation, KCl (60 mM) for 1 hr, replicates and average of three independent experiments)	relative proportion of neurons positive for phospho-CREB, 6 hr KCl ([3]; HUES8-derived cortical neurons 20 days after dissociation, KCl (60 mM) for 6 hrs, replicates and average of three independent experiments)	phosphorylation of CREB after depolarization ([3]; neurons from dissociated cortical spheres depolarized with KCl)	intracellular Ca2+ response (GCaMP6 fluorescence) [4]
[Cl-].[K+] [KCl]	increased transcription	phosphorylation of CREB	45% and 35% and 38%	38% and 34% and 32%	29% (2×) and 36%	robust phosphorylation of CREB	–
Cc1o[nH]c(=O)c1CC(N)C(=O)O (centres unmarked) [AMPA]	–	–	–	–	–	–	responded
NCCCC(=O)O [GABA]	–	–	–	–	–	–	responded
